{"source": "patent US20040258633A1", "about": "“Composition containing monoterpenes for topical oral administration” (Gisol Ltd., priority 2000, published 2004)", "data": [{"assay": "Example 5 salt solution mouth wash, periodontal index (PI)", "type": "in vivo", "conditions": "10% salt solution mouth wash, 30 seconds, twice a day, for a week; point of origin = 1", "description": "Using solutions having a concentration of 10% the salts presented in table 3 below were applied after tooth brushing, in the form of a mouth wash. The mouth wash was applied for 30 seconds, twice a day, for a week. The following results were measured according to the periodontal index (PI): […]", "values": [{"compound": "[Cl-].[K+]", "note": "[Kcl]", "PI (periodontal index)": 1.47}, {"compound": "[Br-].[Br-].[Mg+2]", "note": "[MgBr2]", "PI (periodontal index)": 1.58}, {"compound": "[Cl-].[Na+]", "note": "[NaCl]", "PI (periodontal index)": 1.32}]}]}
